One data set relates to porcine pancreatin. Kind of data set: Peptide stability in simulated intestinal fluid (SIF). The data set is classed as in vitro ADME. On the set-up: remaining at 8 h: dose or concentration left out as unconfirmed. The settings on record: after 8 h vs 0 h (TIC); for SIF stability, Residual peptide Average: average of R1-R3; for SIF stability, Residual peptide: single replicates R1-R3. Summed up:
(§1)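 Peptide from a 1 mM DMSO stock was added to fluid pre-warmed at 37 °C. SGF was pH 1.2 NaCl with porcine pepsin (0.32 g per 100 ml), and SIF was pH 6.8 potassium phosphate with porcine pancreatin (1 g per 100 ml). Supernatant peptide was quantified by LC–MS, with residual expressed as T1/T0.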

Assay in data set [1]: as above
The data set is classed as in vitro ADME, porcine. On the set-up: remaining at 8 h: dose or concentration left out as unconfirmed. The settings on record: pH 6.8. In short, it runs like this: as §1

Another data set concerns the target human α-thrombin (Homo sapiens, UniProt P00734). Kind of data set: Screen of 8,448-member cyclic peptide library against thrombin (crude reactions, 10 μM). It is filed as biochemical. The note with it: 10 μM crude peptide, slopes normalized to DMSO; for Residual thrombin activity: Replica: repeated acylation and screen. As to the method:
The cyclic peptides were N-acylated with activated carboxylic acids as follows. Volumes of 25 nl of cyclic peptides and 25 nl of activated carboxylic acids were transferred in a combinatorial fashion to 384-well microplates (Greiner, 781076) using an Echo 650 acoustic liquid handler (Labcyte). Plates were centrifuged at 2,000g for 2 min and incubated at room temperature for 8 h. […] The reaction products were screened for thrombin inhibition as follows. […] Thrombin inhibition was determined by measuring the fluorescent gain over time. Fluorescence intensity was measured on a Tecan Infinite […] microplate reader for 30 min at 25 °C with a fluorescent readout every 3 min (excitation: 360 nm, emission: 465 nm). Protease inhibition was calculated by comparing the enzymatic activity to a control without cyclic peptide. page 48: Supplementary Tables Supplementary Table 1 […] Cyclic peptide high-throughput screen. Category Parameter Description Assay Type of assay In vitro Target Human α thrombin Primary measurement Proteolytic cleavage of fluorogenic substrate Key reagents […] (Bachem) Assay protocol Described in Materials section “Thrombin library synthesis and screening” Additional comments - […] Library composition Cyclic peptides Source Combinatorial synthesis. Described in Methods section “Thrombin library synthesis and screening” Additional comments - Screen Format 384 well microtiter plates (Greiner, 781076) Concentration(s) tested 10 µM Plate controls 20 wells DMSO, 4 wells human α thrombin inhibitor R-11-25-2 (DOI: 10.1039/d0sc01944e) Reagent/ compound dispensing system Echo 650 (Beckman Coulter), […]) Detection instrument and software Tecan Infinite […] microplate reader Assay validation/QC Z' score: 0.86 Correction factors - Normalization Percent fluorescent gain over time as compared to DMSO Additional comments - […] Additional assay(s) Resynthesis and retesting of 20 best hits in original assay Confirmation of hit purity and structure Compounds were resynthesized and verified analytically Additional comments - 47

A short description of the next data set: in vivo. The settings on record: rat. As to the method:
Male Wistar Han rats (250–350 g) obtained at an age of 9–10 weeks from Charles River Laboratories were used for the studies and kept in housing groups of two or three. Experiments were performed at the age of 10–11 weeks. Intravenous (i.v.) administrations were carried out using tail vein injections. Peptides were dissolved in pure DMSO and diluted with 5% Cremophor EL in water (5% DMSO final) at a concentration of 0.5 mg ml^−1. I.v. administration was carried out at a dose of 1 mg kg^−1 body weight via the left lateral tail vein of rats (n = 3) using an Insyte-W 24 G × 0.75 in. (0.7 mm × 19 mm) temporary peripheral venous catheter (BD Biosciences, 381312). Before injecting the peptide solution, a correct placement of the catheter was confirmed by an apparent reflux of blood through the catheter. Orally (p.o.) administrated peptides were dissolved in DMSO and diluted with 10% Cremophor EL in water (5% DMSO final) at a concentration of 1 mg ml^−1 and administrated by oral gavage to rats (n = 3) at a dose of 10 mg kg^−1. Rats used for oral administration were fasted overnight for 14 h and provided access to food again 2 h after administration, whereas access to water was not restricted throughout the whole experimental procedure. Volumes of 100 μl of blood samples were collected via the right lateral tail vein at different timepoints after i.v. or p.o. administration into heparinized tubes (Sarstedt, 20.1282); the samples were stored on ice for up to 4 h; and plasma was obtained by centrifugation at 2,000g for 5 min at 4 °C. A volume of 40 μl of plasma was added to 120 μl of an acetonitrile:water (9:1) solution containing an internal standard (5 μg ml^−1). Samples were vortexed for 10 s and sonicated for 10 min, and precipitated plasma proteins were pelleted by centrifugation at 16,000g for 15 min at 4 °C. Volumes of 120 μl of supernatant were transferred to a new tube, and solvent was evaporated in a rotary vacuum concentrator (RVC 2–33 CDplus IR, Christ) for 2 h at 40 °C. Dried residues were dissolved in 20 μl of a water:acetonitrile (7:3) (v/v) solution, centrifuged at 14,000g for 5 min and analyzed by LC–MS. Peptides were quantified by extracting ion chromatograms corresponding to their respective mass, integrating the area under the peptide peak and calculating the concentrations by normalization to a calibration curve. Calibration curves were prepared by analyzing spiked samples of blood or plasma with known concentrations of peptide. The absolute oral bioavailability was calculated using equation (6).6 F=AUCp.o./AUCi.v.×Dosei.v./Dosep.o.×100 where AUCp.o. and AUCi.v. are calculated from a plasma concentration versus time curve using the linear trapezoidal rule, and Dosei.v. and Dosep.o. are the intravenously or orally administrated amount of peptide in mg kg^−1.

Where [2] appears, read: pig, simulated gi fluid, 8 h, 37 °C, read-out: Proteolytic stability: SIF (8 h) % remaining.
The mark [3] stands for this setting: simulated gi fluid, 8 h, 37 °C, read-out: Proteolytic stability: SIF (8 h) % remaining.
[4] abbreviates: male, Wistar Han, iv, 1 mg/kg, Concentration in blood samples.
Where [5] appears, read: male, Wistar Han, po, 10 mg/kg, Concentration in blood samples.
Where [6] appears, read: male, Wistar Han, iv, 1 mg/kg, Plasma Concentration (uM).

Molecules are shown by their SMILES. Several values for one entry are separate records, joined by “and”; a condition that tells them apart may be missing. Equal entries are not always repeated. Where two headings read alike, the source gives them in different places.

A word on the bioavailability: it is dose-corrected exposure relative to a reference, in per cent. Broadly, the Cmax is the highest concentration seen after dosing. What is called Tmax is the time at which the peak concentration occurs.

For the compound `CN1CCC(=O)NCCSCCS(=O)(=O)CCSC[C@H](NC(=O)c2ccc(Cl)s2)C(=O)N[C@@H](Cc2ccccc2)C1=O` [compound 14], in the data set with porcine pancreatin, the “SIF stability, Residual peptide Average” value was 87.22; the “SIF stability, Residual peptide” value was 90.22 and 74.69 and 96.74. Moreover, the remaining at 8 h in data set [1] (setting [2]) was 87 ± 11%. On human α-thrombin, the “Residual thrombin activity: Screen” value came to 29.3 and the “Residual thrombin activity: Replica” value is given as 33.0.
As for `O=C1C[C@H]2CCCN2C(=O)[C@H](Cc2ccccc2)NC(=O)[C@@H](NC(=O)c2ccc(Cl)s2)CSC/C=C/CSCCN1` [peptide 32], in the data set on porcine pancreatin, the “SIF stability, Residual peptide Average” value is given as 82.44; the “SIF stability, Residual peptide” value was 91.81 and 71.29 and 84.22. The remaining at 8 h in data set [1] (setting [3]) was 82 ± 10%.
As to `O=C1C[C@H]2CCCN2C(=O)[C@H](Cc2ccccc2)NC(=O)[C@@H](NC(=O)c2ccc(Cl)s2)CCCSC/C=C/CSCCN1` [compound 36], in the data set with porcine pancreatin, the “SIF stability, Residual peptide Average” value is 42.16; the “SIF stability, Residual peptide” value was 44.45 and 36.26 and 45.77. Also, the remaining at 8 h in data set [1] (setting [3]) is 42 ± 5%.
`O=C1C[C@H]2CCCN2C(=O)[C@H](Cc2ccccc2)NC(=O)[C@@H](NC(=O)c2ccc(Cl)s2)CSCCS(=O)(=O)CCSCCN1` [peptide 11]: the “SIF stability, Residual peptide Average” value with porcine pancreatin is given as 14.00. Also, the remaining at 8 h in data set [1] (setting [3]) is 14 ± 4.4%. For the same compound, at human α-thrombin, the “Residual thrombin activity: Screen” value worked out at 3.1 and the “Residual thrombin activity: Replica” value is on record as 1.5.
For `O=C1C[C@H]2CCCN2C(=O)[C@H](Cc2ccccc2)NC(=O)[C@@H](NC(=O)c2ccc(Cl)s2)CCCSCc2cccc(n2)CSCCN1` [compound 35], in the data set on porcine pancreatin, the “SIF stability, Residual peptide” value is 32.04 and 28.68 and 33.58. Moreover, the remaining at 8 h in data set [1] (pig, after 8 h vs 0 h (TIC), average of R1-R3, read-out: SIF stability, Residual peptide Average) is 31.4%; in data set [1] (setting [3]), 31 ± 3%.
For the compound `O=C1C[C@H]2CCCN2C(=O)[C@H](Cc2ccccc2)NC(=O)[C@@H](NC(=O)c2ccc(Cl)s2)CCSCc2cccc(n2)CSCCN1` [compound 33], in the data set on porcine pancreatin, the “SIF stability, Residual peptide Average” value is listed as 68.57; the “SIF stability, Residual peptide” value is 74.90 and 62.29 and 68.52. The remaining at 8 h in data set [1] (setting [3]) was 69 ± 6%.
In the case of `O=C1C[C@H]2CCCN2C(=O)[C@H](Cc2ccccc2)NC(=O)[C@@H](NC(=O)c2ccc(Cl)s2)CCSC/C=C/CSCCN1` [compound 34], in the data set with porcine pancreatin, the “SIF stability, Residual peptide Average” value is 62.79; the “SIF stability, Residual peptide” value was 66.10 and 55.58 and 66.70. Besides, in data set [1] (setting [3]), the remaining at 8 h is 63 ± 6%.
In the case of `O=C1C[C@H]2CCCN2C(=O)[C@H](Cc2ccccc2)NC(=O)[C@@H](NC(=O)c2ccc(Cl)cc2)CCC=CCCCCN1` (mixture of isomers) [peptide 46], the remaining at 8 h in data set [1] (setting [2]) is 93 ± 12%. The “Concentration in blood samples” value in “in vivo” (male, Wistar Han, iv, 1 mg/kg, 1 h) was 0.09 µM. In “in vivo” (setting [4]), this compound registered a level at time molar at 0.08 h of 1.31 µM, a level at time molar at 0.25 h of 0.59 µM, a level at time molar at 0.5 h of 0.28 µM and a level at time molar at 1 h of 0.12 µM. In “in vivo” (setting [4]), this compound showed a level at time molar at 2 h of 0.0535 µM. In the data set “in vivo” (setting [5]), this compound had a level at time molar at 0.5 h of 0.29 µM, a level at time molar at 1 h of 0.24 µM, a level at time molar at 2 h of 0.2 µM and a level at time molar at 8 h of 0.0171 µM. This compound also came in with a bioavailability in “in vivo” (po) of 18.4 ± 1.9%. Further, the Cmax in the data set “in vivo” (po, 10 mg/kg) worked out at 0.4 ± 0.12 µM.
For `O=C1C[C@H]2CCCN2C(=O)[C@H](Cc2ccccc2)NC(=O)[C@@H](NC(=O)c2ccc(Cl)s2)CSCc2cccc(n2)CSCCN1` [compound 31], in the data set with porcine pancreatin, the “SIF stability, Residual peptide Average” value was 75.90; the “SIF stability, Residual peptide” value is 75.23 and 67.97 and 84.49. Besides, the remaining at 8 h in data set [1] (setting [3]) is 76 ± 8%.
On to `O=C1CSCCC[C@H](NC(=O)c2ccc(Cl)s2)C(=O)N[C@@H](Cc2ccccc2)C(=O)N2CCC[C@@H]2CC(=O)NCCSC1` [compound 37], for which, in the data set with porcine pancreatin, the “SIF stability, Residual peptide Average” value is listed as 83.45; the “SIF stability, Residual peptide” value is 93.62 and 67.15 and 89.58. Besides, in data set [1] (setting [3]), the remaining at 8 h is 83 ± 14%.
Regarding `O=C1C[C@H]2CCCN2C(=O)[C@H](Cc2ccccc2)NC(=O)[C@@H](NC(=O)c2ccc(Cl)s2)CCC=CCCCCN1` [peptide 43], the remaining at 8 h in data set [1] (setting [2]) is 91 ± 9%. Further, in the data set “in vivo” (setting [6]), the level at time molar at 0.08 h amounted to 3.19 µM, the level at time molar at 0.25 h amounted to 1.63 µM and the level at time molar at 2 h came out at 0.29 µM. The Tmax in the data set “in vivo” (male, Wistar Han, po) was 30 min. Also, the bioavailability in the data set “in vivo” (po) is 4.5 ± 2.5%. The same compound displayed a Cmax in “in vivo” (po, 10 mg/kg) of 0.183 ± 0.096 µM.

Values taken from publication PMC11062899, “De novo development of small cyclic peptides that are orally bioavailable” (Nature Chemical Biology, 2023).
